Source: patent US8653304B2, “2,3-dihydro-1H-indene-2-yl urea derivative and pharmaceutical application of same” (Toray Industries, Inc., priority 2009, dated 2014)

Experiments:
TNFα production [1] = test: Cytokine production suppressing activity using human whole blood (LPS stimulation); type: cell-based; details: LPS 200 ng/mL, 37° C., 5 hours
Experimental: Using human whole blood, the inhibitory action of Compound (I) on the TNFα production by LPS stimulation was studied by a method partially modified from the method described in Journal of Medicinal Chemistry (2003, Vol. 46, pp. 4676-4686).
A solution of each test compound in 100% DMSO and human blood were mixed in a 96-well flat-bottom plate. Thereafter, LPS (Final Concentration: 200 ng/mL) was added, and the resulting mixture was allowed to react at 37° C. for 5 hours (the final concentration of DMSO was 0.2%). After the reaction, the resultant was centrifuged for 20 minutes at room temperature, and the supernatant was collected. For the measurement of the TNFα amount in the supernatant, a human cytokine kit (CIS bio international) was used. As a comparative control compound, Comparative Compound 2 was used.

[2] = test system: colonic disorders in TNBS-induced colitis model; test: Colonic disorders in TNBS-induced colitis model; type: in vivo; details: Wistar rat, oral 3 mg/kg once on TNBS day then twice a day for 4 days, colon 5 days after TNBS
Description: (§1) The action of Compound (I) on colonic disorders in inflammatory bowel disease models was studied. As the inflammatory bowel disease models, models partially modified from a TNBS-induced colitis model and a DSS-induced chronic colitis model described in documents (Gastroenterology, 1989, Vol. 96, pp. 29-36 and Am. J. Physiol. Gastrointest. Liver Physiol., 2004, Vol. 287, pp. G115-124) were used.
To each Slc:Wistar rat (male, 12-week old, Japan SLC, Inc.), TNBS (Wako Pure Chemical Industries, Ltd.) dissolved in ethanol was rectally administered under anesthesia, and the TNBS solution was held in the rectum for 1 hour to produce the colitis model. These rats had been fasted from 2 days before the TNBS administration to the day of the TNBS administration. Five days after the TNBS administration, the colon was isolated from the each rat, and the macroscopic damage score (which is a total of adhesion score, diarrhea score and ulcer score) was recorded as an index of damage in the colon. The macroscopic damage score was calculated based on the scores of Dubigeon et al. (Eur. J. Pharmacol., 2001, Vol. 431, pp. 103-110) and the scores of Venkova et al. (J. Pharmacol. Exp. Ther., 2004, Vol. 308, pp. 206-213). […]

human p38 MAPK α = human p38 MAPK α (Homo sapiens (Human), UniProt Q16539); test: Evaluation of p38 MAPK inhibitory activity (Alpha Screen, ATF2 phosphorylation); type: biochemical; details: p38α/SAPK2a 1.5 nM, ATP 100 μM, biotinylated ATF2 30 nM
Experimental: Using human p38 MAPK α, the p38 MAPK inhibitory activity of Compound (I) was studied by a method partially modified from the method described in Current Medicinal Chemistry (2004, No. 11, pp. 721-730).
A solution of each test compound solution in 100% DMSO and a p38α/SAPK2a solution (Final Concentration: 1.5 nM) (Invitrogen) were added to a 384-well plate, and then the plate was incubated at room temperature in a dark place for 1 hour. Thereafter, ATP (Final Concentration: 100 μM), which is a phosphate donor, and biotinylated ATF2 (Final Concentration: 30 nM) (upstate), which is a substrate, were added, and the resulting mixture was allowed to react at room temperature in a dark place for 1 hour (the final concentration of DMSO was 0.25%). After the reaction, an anti-phosphorylated ATF2 antibody (Final Concentration: 1 nM) (Cell Signaling), anti-IgG acceptor beads (Final Concentration: 20 μg/mL) (PerkinElmer) and streptavidin donor beads (Final Concentration: 20 μg/mL) (PerkinElmer) were added, and the resultant was incubated at room temperature in a dark place for 1 hour. Using a microplate analyzer (Fusion-α, Packard) in Alpha Screen method (Amplified Luminescent Proximity Homogeneous Assay), the light emission was detected. The IC50 value of each compound was calculated by sigmoidal dose-response regression using Prism 4.02 (GraphPad Software, Inc.).

[3] = test system: colonic disorders in DSS-induced chronic colitis model; test: Colonic disorders in DSS-induced chronic colitis model; type: in vivo; details: BALB/c mouse, oral 10 mg/kg once Day 27, twice a day Day 28-31; scores Day 28-32
Description: as §1
To each BALB/cCrSlc mouse (female, 9-week old, Japan SLC, Inc.), DSS (Molecular Weight: 36-50 kDa; MP Biomedicals) dissolved in sterile ultrapure water was administered via free drinking for 5 days from the day of the start of the administration via drinking water (this day was considered as Day 0 after the start of the administration via drinking water), and then switched to administration of sterile ultrapure water via free drinking for 5 days. This cycle was repeated again, and DSS was further administered via free drinking for another 7 days to produce the colitis model. As an index of colitis symptoms, stool consistency scores were used. The stool consistency scores were based on the following criteria: normal stool was defined as score 0; loose stool was defined as score 2; and diarrhea was defined as score 4. […]

[4] = test system: skin swelling response in type IV allergic dermatitis model; test: Skin swelling response in type IV allergic dermatitis model; type: in vivo; details: BALB/c mouse, 24 hours after induction
Experimental: (§2) The action of Compound (I) on skin swelling response in mouse allergic dermatitis models was studied. As the allergic dermatitis models, models partially modified from a type I allergic dermatitis model and a type IV allergic dermatitis model described in documents (Inflamm. Res., 1998, Vol. 47, pp. 506-511 and Int. Arch. Allergy. Appl. Immunol., 1990, Vol. 92, pp. 356-360) were used.
To the back of each BALB/c mouse (female, 7-week old, Charles River Laboratories Japan, Inc.), 25 μL of 0.5% DNFB solution dissolved in acetone:olive oil (4:1) was applied. On the next day, the same operations were repeated to actively sensitize the mouse. Four days after the sensitization, 20 μL of 0.2% DNFB solution dissolved in acetone:olive oil (4:1) was applied to the auricle of the sensitized mouse to induce inflammation. Twenty four hours after the induction, the thickness of the auricle was measured using a Digimatic Indicator (Mitutoyo). Each test compound was dissolved in ethanol and 20 μL of 0.5 w/v % solution was applied to the auricle at 1 hour before the induction; or each test compound was suspended in 0.5% methylcellulose (Wako Pure Chemical Industries, Ltd.) and the resulting solution was orally administered at 30 mg/kg at 1 hour before the induction. The swelling ratio of the auricle was calculated according to the following equation: Auricular Swelling Ratio(%)=(A−B)/B×100

[5] = test system: skin swelling response in type I allergic dermatitis model; test: Skin swelling response in type I allergic dermatitis model; type: in vivo; details: BALB/c mouse, 20 μL of 0.5 w/v % solution applied to auricle 1 hour before induction
Description: as §2
To each BALB/c mouse (female, 7-week old, Charles River Laboratories Japan, Inc.), mouse IgE anti-DNP antibody (0.05 mg/body, […] CORPORATION) was intravenously administered to passively sensitize the mouse. Twenty four hours after the sensitization, 20 μL of 0.38% DNFB (SIGMA) dissolved in acetone:olive oil (4:1) was applied to the auricle of the mouse to induce inflammation. From after the induction to 24 hours, the thickness of the auricle was measured with time using a Digimatic Indicator (Mitutoyo). Each test compound was dissolved in ethanol, and 20 μL of 0.5 w/v % solution was applied to the auricle at 1 hour before the induction.
The swelling ratio of the auricle was calculated according to the following equation. […] Auricular Swelling Ratio(%)=(A−B)/B×100

TNFα production [6] = test: Mouse LPS-induced cytokine production model; type: in vivo; details: BALB/c mouse, 50 mg/kg oral 30 minutes before LPS 1 mg/kg i.p., serum 60 minutes after LPS
Experimental: The action of Compound (I) on the TNFα production induced by LPS administration in a mouse was studied by a method partially modified from the method described in Journal of Immunology (1992, Vol. 148, pp. 1890-1897).
To each BALB/c mouse (male, 7 to 9-week old, Charles River Laboratories Japan, Inc.), LPS (0111:B4, SIGMA) was intraperitoneally administered at a dose of 1 mg/kg. Sixty minutes after the LPS administration, blood was collected from the abdominal vena cava under anesthesia and centrifuged for 15 minutes at 4° C. to obtain a serum. For the measurement of TNF-α in the serum, ELISA Development System (R&D Systems) was used. Each test compound was dissolved in DMSO (Final Concentration: 2%), and then the obtained solution was dissolved in a 27% aqueous solution of 2-hydroxypropyl-β-cyclodextrin (hereinafter referred to as “HP-β-CD”; Nihon Shokuhin Kako Co., Ltd.). Thirty minutes before the LPS administration, the resulting solution was orally administered at 50 mg/kg.

[7] = Metabolic stability in human CYP (human liver microsomes); type: in vitro ADME; details: human liver microsomes 0.5 mg/mL, NADPH, 37° C., comparative control compounds 5 μM
Experimental: Each test compound was mixed at a concentration of 2 μM with a phosphate buffer solution containing Human liver microsomes (Xenotech) in an amount of 0.5 mg/mL. Thereafter, NADPH was added thereto, and the obtained mixture was allowed to react at 37° C. for up to 30 minutes. The reaction was terminated by adding acetonitrile, and then the resultant was centrifuged for 10 minutes at 4° C. to collect a supernatant. The supernatant was pretreated by methanol extraction method, and the concentration of the compound was analyzed by LC/MS/MS (ESI positive mode). The compound remaining rate was calculated from the obtained concentration of the compound.

[8] = test system: hyperalgesia in Bennett model; test: Hyperalgesia in neuropathic pain model (Bennett model), plantar test; type: in vivo; details: SD rat, Bennett model day 14, oral 100 mg/kg, 90 minutes after administration; FIG. 2
Description: The action of Compound (I) on hyperalgesia in pain models was studied. As the pain models, models partially modified from an inflammatory pain model (a carrageenin paw edema pain model) and neuropathic pain models (Bennett model and Chung model) described in documents (Anesth. Analg., 2009, Vol. 108, pp. 1680-1687; Pain, 1988, Vol. 33, pp. 87-107; and Pain, 1992, Vol. 50, pp. 355-363) were used.
The Bennett model was produced by lightly ligating the sciatic nerve in the left thigh of each Crl:CD (SD) rat (male, 6-week old, Charles River Laboratories Japan, Inc.) at 4 points with chromic catgut (4-0). Fourteen days after the Bennett model was produced, each test compound was orally administered, and plantar test was performed 90 minutes after the administration. The plantar test was carried out by measuring the pain threshold (sec) of the left footpad (model foot) using a plantar thermal stimulation device (Plantar test 7370, Ugo Basile) wherein the thermal stimulus intensity was set to 60. Each test compound was suspended in 0.5 w/v % methylcellulose (Wako Pure Chemical Industries, Ltd.) and the obtained solution was orally administered. Compound 46b described in the Examples was administered at a dose of 100 mg/kg, and gabapentin (Toronto Research Chemicals), which is an anticonvulsant, was administered as a comparative control agent at a dose of 100 mg/kg.

Sequence of human p38 MAPK α (Q16539 whole entry): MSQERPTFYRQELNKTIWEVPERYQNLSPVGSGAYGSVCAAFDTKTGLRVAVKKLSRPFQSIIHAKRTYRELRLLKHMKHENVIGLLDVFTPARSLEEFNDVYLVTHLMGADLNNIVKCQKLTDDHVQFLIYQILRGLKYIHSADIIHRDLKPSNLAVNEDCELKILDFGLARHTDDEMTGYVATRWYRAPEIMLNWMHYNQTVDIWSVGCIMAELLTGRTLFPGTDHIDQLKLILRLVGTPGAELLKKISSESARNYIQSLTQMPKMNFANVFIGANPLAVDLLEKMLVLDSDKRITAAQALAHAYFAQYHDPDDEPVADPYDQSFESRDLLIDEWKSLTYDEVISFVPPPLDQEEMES

SMILES: COc1c(NC(=O)N[C@H]2Cc3c(F)cccc3[C@H]2O)cc(C(C)(C)C)cc1[C@@H](O)C(F)(F)F (single isomer, unassigned) [Compound 50b]
- IC50 (TNFα production [1]): 46 nM
- macroscopic damage score [2]: 5.2±1.1
- IC50 (human p38 MAPK α): 35 nM
- stool consistency score (total) [3]: 6.5±0.6
- suppression ratio of auricular swelling, oral administration ([4]; 30 mg/kg oral 1 hour before induction): 54.4%
- suppression ratio of auricular swelling, auricular application ([4]; 20 μL of 0.5 w/v % solution on auricle 1 hour before induction): 48.0%
- suppression ratio on immediate response (auricular swelling AUC 0-4 hours) [5]: 33.4%
- suppression ratio on late response (auricular swelling AUC 5-10 hours) [5]: 50.2%

SMILES: COc1c(NC(=O)N[C@@H]2Cc3ccccc3[C@@H]2O)cc(C(C)(C)C)cc1C(C)(C)C#N [Comparative Compound 3, 1-(5-tert-butyl-3-(2-cyanopropan-2-yl)-2-methoxyphenyl)-3-((1S,2R)-1-hydroxy-2,3-dihydro-1H-indene-2-yl)urea, reference compound]
- Suppression Ratio of TNFα production (TNFα production [6]): 17.0%
- microsomal CLint at 5 μM [7]: 450 µL/min/mg

SMILES: NCC1(CC(=O)O)CCCCC1 [gabapentin, reference compound]
- pain threshold (sec), plantar test, compared to solvent-administered group [8]: significant difference
